Laboratory results: patent US20230126447A1, “OCULAR DRUG DEPOT FOR COMPLEMENT-MEDIATED DISORDERS” (priority 2020, published 2023)
Where “and” joins values, the source holds several entries; their conditions need not be identical. Identical values can stand only once. Like-named read-outs stand apart in the source and are kept apart here.

Assay: Ocular tissue and plasma pharmacokinetics, 50 mg/kg BID oral, Dutch Belted rabbits (Example 4/5)
Type: in vivo
Details: for concentration at 96 h / concentration at 168 h / concentration at 0 h / concentration at 1 h / concentration at 6 h / concentration at 24 h / concentration at 240 h: 50 mg/kg
Description: Study design, including group designation and dose levels, are outlined in Table 15. […] Two Dutch Belted rabbits received vehicle only oral gavage doses for tolerability assessment. […] The dose volume was 5 mL/kg/dose for all groups. Safety was assessed with toxicological and ophthalmic examinations, including slit lamp biomicroscopy, indirect ophthalmoscopy, rebound tonometry, and ultrasonic corneal pachymetry.
For the pharmacokinetic determination, a single blood sample was taken from each rabbit from Groups 1 and 4 at one hour post-dose on Day 15, Group 2 at one hour post-dose on Day 8, and Group 3 at pre-dose, 1, 6, 24, 96, 168, and 240 hours post-dose on Day 15, with the eyes collected at the same time as blood sampling. Plasma, vitreous humor (VH), retina, choroid-retina pigmented epithelium (Choroid-RPE), optic nerve (ON), and iris-ciliary body (I-CB) were analyzed by LC-MS/MS to quantify test article concentrations. The lower limit of quantitation (LLOQ) in plasma and vitreous humor was 1.0 ng/mL. The LLOQ was 6.0 ng/g in retina, choroid-RPE, and I-CB and the optic nerve LLOQ was 15 ng/g, assuming tissue density of 1 g/mL where relevant. […]

[1] = male, Dutch Belted, po, Optic Nerve, DB rabbit, 50 mg/kg BID, Day 15
[2] = male, Dutch Belted, po, Plasma, DB rabbit, 50 mg/kg BID, Day 15
[3] = male, Dutch Belted, po, Retina, DB rabbit, 50 mg/kg BID, Day 15
[4] = male, Dutch Belted, po, Vitreous Humor, DB rabbit, 50 mg/kg BID, Day 15

Compound: CC(=O)c1nn(CC(=O)N2C[C@H](F)C[C@H]2C(=O)Nc2cccc(Br)n2)c2ccc(-c3cnc(C)nc3)cc12 [Compound 1, (2S,4R)-1-(2-(3-Acetyl-5-(2-methylpyrimidin-5-yl)-1H-indazol-1-yl)acetyl)-N-(6-bromopyridin-2-yl)-4-fluoropyrrolidine-2-carboxamide]
- Cmax [1]: 1550 ng/g
- MRT last [1]: 4.79 h
- Tmax [1]: 1 h
- half-life [1]: 7.82 h
- AUC(0-inf) [2]: 10100 ng·h/mL
- Cmax [2]: 2900 ng/mL
- MRT last [2]: 4.73 h
- Tmax [2]: 1 h
- half-life [2]: 5.98 h
- AUC(0-t) (male, Dutch Belted, po, Plasma, DB rabbit, 50 mg/kg BID, Day 15, read-out: AUC0-t): 9790 ng·h/mL
- Cmax [3]: 2120 ng/g
- MRT last [3]: 53.2 h
- Tmax [3]: 1 h
- half-life [3]: 96.1 h
- Cmax [4]: 49.2 ng/g and 49.2 ng/mL
- MRT last [4]: 7.27 h
- Tmax [4]: 1 h
- half-life [4]: 5.44 h
- AUC(0-t) (male, Dutch Belted, po, Vitreous Humor, DB rabbit, 50 mg/kg BID, Day 15, read-out: AUClast): 419 ng·h/mL
- concentration at 96 h (male, Dutch Belted, rabbit, choroid-RPE, oral, DB rabbits, Day 15, 50 mg/kg BID, 96 hr, read-out: Mean Choroid-RPE Concentration): 873 ng/g
- concentration at 168 h (male, Dutch Belted, rabbit, choroid-RPE, oral, DB rabbits, Day 15, 50 mg/kg BID, 168 hr, read-out: Mean Choroid-RPE Concentration): 645 ng/g
- concentration at 0 h (male, Dutch Belted, rabbit, choroid-RPE, po, DB rabbit, 50 mg/kg BID oral, Day 15, 0 h, read-out: Mean Choroid-RPE concentration): 3920 ng/g
- concentration at 1 h (male, Dutch Belted, rabbit, choroid-RPE, po, DB rabbit, 50 mg/kg BID oral, Day 15, 1 h, read-out: Mean Choroid-RPE concentration): 8020 ng/g
- concentration at 6 h (male, Dutch Belted, rabbit, choroid-RPE, po, DB rabbit, 50 mg/kg BID oral, Day 15, 6 h, read-out: Mean Choroid-RPE concentration): 4370 ng/g
- concentration at 24 h (male, Dutch Belted, rabbit, choroid-RPE, po, DB rabbit, 50 mg/kg BID oral, Day 15, 24 h, read-out: Mean Choroid-RPE concentration): 2100 ng/g
- concentration at 240 h (male, Dutch Belted, rabbit, choroid-RPE, po, DB rabbit, 50 mg/kg BID oral, Day 15, 240 h, read-out: Mean Choroid-RPE concentration): 194 ng/g
- concentration at 0 h (male, Dutch Belted, rabbit, iris-ciliary body, po, DB rabbit, 50 mg/kg BID oral, Day 15, 0 h, read-out: Mean Iris-Ciliary Body concentration): 5080 ng/g
- concentration at 1 h (male, Dutch Belted, rabbit, iris-ciliary body, po, DB rabbit, 50 mg/kg BID oral, Day 15, 1 h, read-out: Mean Iris-Ciliary Body concentration): 11500 ng/g
- concentration at 6 h (male, Dutch Belted, rabbit, iris-ciliary body, po, DB rabbit, 50 mg/kg BID oral, Day 15, 6 h, read-out: Mean Iris-Ciliary Body concentration): 8820 ng/g
- concentration at 24 h (male, Dutch Belted, rabbit, iris-ciliary body, po, DB rabbit, 50 mg/kg BID oral, Day 15, 24 h, read-out: Mean Iris-Ciliary Body concentration): 5560 ng/g
- concentration at 96 h (male, Dutch Belted, rabbit, iris-ciliary body, po, DB rabbit, 50 mg/kg BID oral, Day 15, 96 h, read-out: Mean Iris-Ciliary Body concentration): 2840 ng/g
- concentration at 168 h (male, Dutch Belted, rabbit, iris-ciliary body, po, DB rabbit, 50 mg/kg BID oral, Day 15, 168 h, read-out: Mean Iris-Ciliary Body concentration): 2290 ng/g
- concentration at 240 h (male, Dutch Belted, rabbit, iris-ciliary body, po, DB rabbit, 50 mg/kg BID oral, Day 15, 240 h, read-out: Mean Iris-Ciliary Body concentration): 1620 ng/g
- concentration at 0 h (male, Dutch Belted, rabbit, optic nerve, po, DB rabbit, 50 mg/kg BID oral, Day 15, 0 h, read-out: Optic Nerve concentration): 45.3 ng/g
- concentration at 1 h (male, Dutch Belted, rabbit, optic nerve, po, DB rabbit, 50 mg/kg BID oral, Day 15, 1 h, read-out: Optic Nerve concentration): 1550 ng/g
- concentration at 6 h (male, Dutch Belted, rabbit, optic nerve, po, DB rabbit, 50 mg/kg BID oral, Day 15, 6 h, read-out: Optic Nerve concentration): 133 ng/g
- concentration at 24 h (male, Dutch Belted, rabbit, optic nerve, po, DB rabbit, 50 mg/kg BID oral, Day 15, 24 h, read-out: Optic Nerve concentration): 27 ng/g
- concentration at 0 h (male, Dutch Belted, rabbit, plasma, po, DB rabbit, 50 mg/kg BID oral, Day 15, 0 h, read-out: Mean plasma concentration): 104 ng/mL
- concentration at 1 h (male, Dutch Belted, rabbit, plasma, po, DB rabbit, 50 mg/kg BID oral, Day 15, 1 h, read-out: Mean plasma concentration): 2900 ng/mL
- concentration at 6 h (male, Dutch Belted, rabbit, plasma, po, DB rabbit, 50 mg/kg BID oral, Day 15, 6 h, read-out: Mean plasma concentration): 320 ng/mL
- concentration at 24 h (male, Dutch Belted, rabbit, plasma, po, DB rabbit, 50 mg/kg BID oral, Day 15, 24 h, read-out: Mean plasma concentration): 39.9 ng/mL
- concentration at 0 h (male, Dutch Belted, rabbit, retina, oral, DB rabbits, Day 15, 50 mg/kg BID, 0 hr, read-out: Mean Retina Concentration): 159 ng/g
- concentration at 1 h (male, Dutch Belted, rabbit, retina, oral, DB rabbits, Day 15, 50 mg/kg BID, 1 hr, read-out: Mean Retina Concentration): 2120 ng/g
- concentration at 6 h (male, Dutch Belted, rabbit, retina, oral, DB rabbits, Day 15, 50 mg/kg BID, 6 hr, read-out: Mean Retina Concentration): 725 ng/g
- concentration at 24 h (male, Dutch Belted, rabbit, retina, oral, DB rabbits, Day 15, 50 mg/kg BID, 24 hr, read-out: Mean Retina Concentration): 265 ng/g
- concentration at 96 h (male, Dutch Belted, rabbit, retina, oral, DB rabbits, Day 15, 50 mg/kg BID, 96 hr, read-out: Mean Retina Concentration): 32.3 ng/g
- concentration at 168 h (male, Dutch Belted, rabbit, retina, oral, DB rabbits, Day 15, 50 mg/kg BID, 168 hr, read-out: Mean Retina Concentration): 54.9 ng/g
- concentration at 240 h (male, Dutch Belted, rabbit, retina, oral, DB rabbits, Day 15, 50 mg/kg BID, 240 hr, read-out: Mean Retina Concentration): 39.4 ng/g
- concentration at 0 h (male, Dutch Belted, rabbit, retina, po, DB rabbit, 50 mg/kg BID oral, Day 15, 0 h, read-out: Mean retina concentration): 159 ng/g
- concentration at 1 h (male, Dutch Belted, rabbit, retina, po, DB rabbit, 50 mg/kg BID oral, Day 15, 1 h, read-out: Mean retina concentration): 2120 ng/g
- concentration at 6 h (male, Dutch Belted, rabbit, retina, po, DB rabbit, 50 mg/kg BID oral, Day 15, 6 h, read-out: Mean retina concentration): 725 ng/g
- concentration at 24 h (male, Dutch Belted, rabbit, retina, po, DB rabbit, 50 mg/kg BID oral, Day 15, 24 h, read-out: Mean retina concentration): 265 ng/g
- concentration at 96 h (male, Dutch Belted, rabbit, retina, po, DB rabbit, 50 mg/kg BID oral, Day 15, 96 h, read-out: Mean retina concentration): 32.3 ng/g
- concentration at 168 h (male, Dutch Belted, rabbit, retina, po, DB rabbit, 50 mg/kg BID oral, Day 15, 168 h, read-out: Mean retina concentration): 54.9 ng/g
- concentration at 240 h (male, Dutch Belted, rabbit, retina, po, DB rabbit, 50 mg/kg BID oral, Day 15, 240 h, read-out: Mean retina concentration): 39.3 ng/g
- concentration at 0 h (male, Dutch Belted, rabbit, vitreous humor, po, DB rabbit, 50 mg/kg BID oral, Day 15, 0 h, read-out: Vitreous concentration): 2.91 ng/g
- concentration at 1 h (male, Dutch Belted, rabbit, vitreous humor, po, DB rabbit, 50 mg/kg BID oral, Day 15, 1 h, read-out: Vitreous concentration): 49.2 ng/g
- concentration at 6 h (male, Dutch Belted, rabbit, vitreous humor, po, DB rabbit, 50 mg/kg BID oral, Day 15, 6 h, read-out: Vitreous concentration): 28.7 ng/g
- concentration at 24 h (male, Dutch Belted, rabbit, vitreous humor, po, DB rabbit, 50 mg/kg BID oral, Day 15, 24 h, read-out: Vitreous concentration): 2.9 ng/g
- Tlast (plasma, DB rabbit, 50 mg/kg BID, Day 15): 24 h
- C-RPE drug concentration at least 10 days following the last oral administration (rabbit, 50 mg/kg BID): 196 ng/mL
